By MIC is commonly meant the least concentration at which growth counts as inhibited. As usually defined, the ED50 is the dose that gives a 50% effect, or the effect in half of the subjects. As usually defined, the LD50 is the dose expected to kill half of the subjects tested. By MIC50 is commonly meant the lowest concentration that inhibits either 50% of growth or 50% of the strains tested, depending on the study. A word on the IC50: it is the concentration that gives 50% inhibition. Higher therefore signals a need for much substance.

SMILES strings stand for the structures. Values after ≈ are worked out from the molar mass of the structure shown. A value given as a limit tells only on which side of the number the result lay.

Results on 15 compounds are retold here after ChEMBL document CHEMBL5244219, “Recent developments of quinolone-based derivatives and their activities against Escherichia coli” (Eur J Med Chem, 2018).

Data set [1] relates to Escherichia coli. Put plainly: Antibacterial activity against Escherichia coli NCTC 10419 assessed as bacterial growth inhibition. In kind it is functional.
Data set [2] deals with Escherichia coli. Briefly: In vivo antibacterial activity against Escherichia coli NCTC 10419 infected in po dosed CF-mouse assessed as bacterial growth inhibition. In kind it is functional, organism-based.
In data set [3] the test system is Escherichia coli. Put plainly: Antibacterial activity against Escherichia coli assessed as bacterial growth inhibition measured after 18 hrs by two-fold serial dilution method. In kind it is functional.
For data set [4], the system named is Escherichia coli. Briefly: Antibacterial activity against Escherichia coli assessed as bacterial growth inhibition incubated for 18 hrs by agar dilution method. In kind it is functional.
For data set [5], the system named is Escherichia coli. Put plainly: Antibacterial activity against Escherichia coli ATCC 25922 assessed as bacterial growth inhibition. In kind it is functional.
For data set [6], the system named is Escherichia coli. Put plainly: Antibacterial activity against Escherichia coli ISF 432 assessed as bacterial growth inhibition. In kind it is functional.
Data set [7] relates to Escherichia coli. Put plainly: Antibacterial activity against Escherichia coli ATCC 8739 assessed as bacterial growth inhibition. It is filed as functional.
The subject of data set [8] is Escherichia coli. Briefly: Antibacterial activity against Escherichia coli K-12 C600 assessed as bacterial growth inhibition. It is filed as functional.
Data set [9] concerns Escherichia coli. Put plainly: Antibacterial activity against Escherichia coli KC-14 assessed as bacterial growth inhibition. In kind it is functional.
Data set [10] relates to Escherichia coli. Briefly: Antibacterial activity against Escherichia coli ATCC 25922 infected in iv dosed mouse assessed as bacterial growth inhibition. It is filed as functional.
For data set [11], the system named is Escherichia coli. Put plainly: Antibacterial activity against nalidixic acid resistant Escherichia coli assessed as bacterial growth inhibition. It is filed as functional.
Data set [12] deals with Escherichia coli. Briefly: Antibacterial activity against Escherichia coli KC-14 infected in po dosed mouse assessed as bacterial growth inhibition. It is filed as functional. The note with it: Escherichia coli, KC-14, po, read-out: ED50.
A short description of data set [13]: Acute toxicity in iv dosed mouse assessed as lethal dose. It is filed as organism-based. The note with it: in vivo.
For data set [14], the system named is Escherichia coli. Put plainly: Antibacterial activity against Escherichia coli ATCC 25922 infected in iv dosed rat assessed as log reduction in bacterial count in lung homogenate at 5 mg/kg. In kind it is functional.
In data set [15] the test system is Escherichia coli. Briefly: Antibacterial activity against Escherichia coli TolC assessed as bacterial growth inhibition. It is filed as functional.
Data set [16] concerns Escherichia coli. Put plainly: Antibacterial activity against Escherichia coli DH5alpha assessed as bacterial growth inhibition. It is filed as functional.
The test system of data set [17] is Escherichia coli. Briefly: Antibacterial activity against drug-sensitive Escherichia coli assessed as bacterial growth inhibition. In kind it is functional.
Data set [18] relates to Escherichia coli. Briefly: Antibacterial activity against Escherichia coli DC2 assessed as bacterial growth inhibition. It is filed as functional.
In data set [19] the test system is Escherichia coli. Put plainly: Antibacterial activity against Escherichia coli DC0 assessed as bacterial growth inhibition. In kind it is functional.
Data set [20] concerns Escherichia coli. Put plainly: Antibacterial activity against Escherichia coli ES142 assessed as bacterial growth inhibition. It is filed as functional.
In data set [21] the target is DNA gyrase (Escherichia coli, UniProt P0AES4+P0AES6). Put plainly: Inhibition of Escherichia coli DNA gyrase. In kind it is protein-complex assay.

`COc1cc(Cc2cnc(/N=C3\C(=O)N(CN4CCN(c5cc6c(cc5F)c(=O)c(C(=O)O)cn6C5CC5)CC4)c4ccc(C)cc43)nc2N)cc(OC)c1OC`: the minimum inhibitory concentration (MIC) in [1] turned out to be 0.0002 µg/mL (≈ 0.000257 µM). For the same compound, in data set [2], the EC50 stood at 0.62 mg/kg.
Take `CC(C)(CF)n1cc(C(=O)O)c(=O)c2cc(F)c(N3CC[C@H](N)C3)cc21`: the minimal inhibitory concentration (MIC) in data set [3] came out at 0.002 µg/mL (≈ 0.00547 µM).
As for `COc1c(N2CC3(CC3)[C@](C)(N)C2)c(F)cc2c(=O)c(C(=O)O)cn([C@@H]3C[C@@H]3F)c12`, the MIC in data set [4] was at most 0.006 µg/mL.
For the compound `C[C@@H](O)[C@H]1C(=O)N2C(C(=O)O)=C(COC(=O)N3CCN(c4cc5c(cc4F)c(=O)c(C(=O)O)cn5C4CC4)CC3)S[C@H]12`, the MIC in [5] is at most 0.06 µg/mL.
For the compound `Cc1c(N2CCc3ccccc3C2)c(N)cc2c(=O)c(C(=O)O)cn(C3CC3)c12`, the MIC in [6] and in data set [7] was 0.008 µg/mL (≈ 0.0205 µM) in each case.
Consider `Cc1c(N2CC(C)OC(C)C2)c(N)cc2c(=O)c(C(=O)O)cn(C3CC3)c12` (configuration not stated), for which the MIC in data set [6] and in data set [7] was 0.008 µg/mL (≈ 0.0215 µM) in each case.
Regarding `COc1c(N2C[C@@H](N)C3(CC3)C2)c(F)cc2c(=O)c(C(=O)O)cn([C@@H]3C[C@@H]3F)c12`, the MIC in data set [4] was at most 0.006 µg/mL.
As to `CN1CCN(c2cc3c(cc2F)c(=O)c(C(=O)O)c2n3CCS2)CC1`, the MIC in data set [8] and in data set [9] was 0.2 µg/mL (≈ 0.55 µM) each time.
For `CN1CCN(c2cc3c(cc2F)c(=O)c(C(=O)O)cn3-c2ccc(O)cc2)CC1`, in data set [10], the ED50 worked out at 0.75 mg/kg.
In the case of `CN1CCN(c2c(F)cc3c(=O)c(C(=O)O)c4scc5n4c3c2OC5)CC1`, the MIC in data set [11] stood at 0.2 µg/mL (≈ 0.514 µM). In data set [12], the ED50 was found to be 1.01 mg/kg. In data set [13], the median lethal dose (LD50) was 237 mg/kg.
Take `CN1CCN(c2cc3c(cc2F)c(=O)c(C(=O)O)cn3-c2ccc(OP(=O)(O)O)cc2)CC1`: the ED50 in [10] was 0.74 mg/kg. In data set [14], the “log(activity)” value stood at 2.
Take `CC(C)=CCC/C(C)=C/Cc1c(C)[nH]c2ccccc2c1=O`: the results for the MIC50 in [15] and in [16] were above 1.41 µg/mL and above 64 µg/mL, respectively.
Take `CC(C)=CCc1c(C)[nH]c2ccccc2c1=O`: the MIC50 in data set [15] is above 1.41 µg/mL; in [16], above 64 µg/mL.
In the case of `O=C(O)c1cn(C2CC2)c2cc(N3CCN([C@@H]4O[C@H](CO)[C@@H](O)[C@H](O)[C@H]4O)CC3)c(F)cc2c1=O`, the MIC in data set [17] is at most 0.03 µg/mL.
As for `C[C@H](N)[C@@H]1CCN(c2cc3c4c(c2)c(=O)c(C(=O)O)cn4[C@@H](C)CO3)C1`, the minimal inhibitory concentration (MIC) in data set [18], in [19] and in [20] was 0.063 µg/mL (≈ 0.176 µM) in each case. In data set [21], this compound showed an IC50 of 17.9 µM.
